Assay results from patent publication US20240018161A1, “MODULATORS OF CYSTIC FIBROSIS TRANSMEMBRANE CONDUCTANCE REGULATOR” (VERTEX PHARMACEUTICALS INCORPORATED, priority 2020, published 2024).
pEC50: −log10 of the molar value.

Molecular target: CFTR-mediated chloride transport in human intestinal epithelial enteroid cells (Homo sapiens, UniProt P13569)
Test: Membrane potential dye, Enteroid Assay A
Type: cell-based
Details: for Ent. A Max Activity (%): percentage of chloride transport of triple combination control (3 μM N-[(6-amino-2-pyridyl)sulfonyl]-6-(3-fluoro-5-isobutoxy-phenyl)-2-[(4S)-2,2,4-trimethylpyrrolidin-1-yl]pyridine-3-carboxamide based); for pEC50: enteroid cells incubated with test compound 18-24 hours, acute 10 μM forskolin and 300 nM N-[2,4-bis(1,1-dimethylethyl)-5-hydroxyphenyl]-1,4-dihydro-4-oxoquinoline-3-carboxamide, read-out: Ent. A EC50
Procedure, shortened: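 Membrane potential dye (20 μM methyl oxonol, with 30 μM CaCCinh-A01 and 30 μM Chicago Sky Blue) loaded 25 min at room temperature into ROCK-inhibitor-seeded human enteroid cells. Chloride-free stimulation buffer triggered transport, followed by 15 min fluorescence. % Activity relative to 3 μM/3 μM/300 nM triple-combination control.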

CFTR-mediated chloride transport in human intestinal epithelial enteroid cells, sequence (P13569 with tags, fused parts or gaps DEL508-508): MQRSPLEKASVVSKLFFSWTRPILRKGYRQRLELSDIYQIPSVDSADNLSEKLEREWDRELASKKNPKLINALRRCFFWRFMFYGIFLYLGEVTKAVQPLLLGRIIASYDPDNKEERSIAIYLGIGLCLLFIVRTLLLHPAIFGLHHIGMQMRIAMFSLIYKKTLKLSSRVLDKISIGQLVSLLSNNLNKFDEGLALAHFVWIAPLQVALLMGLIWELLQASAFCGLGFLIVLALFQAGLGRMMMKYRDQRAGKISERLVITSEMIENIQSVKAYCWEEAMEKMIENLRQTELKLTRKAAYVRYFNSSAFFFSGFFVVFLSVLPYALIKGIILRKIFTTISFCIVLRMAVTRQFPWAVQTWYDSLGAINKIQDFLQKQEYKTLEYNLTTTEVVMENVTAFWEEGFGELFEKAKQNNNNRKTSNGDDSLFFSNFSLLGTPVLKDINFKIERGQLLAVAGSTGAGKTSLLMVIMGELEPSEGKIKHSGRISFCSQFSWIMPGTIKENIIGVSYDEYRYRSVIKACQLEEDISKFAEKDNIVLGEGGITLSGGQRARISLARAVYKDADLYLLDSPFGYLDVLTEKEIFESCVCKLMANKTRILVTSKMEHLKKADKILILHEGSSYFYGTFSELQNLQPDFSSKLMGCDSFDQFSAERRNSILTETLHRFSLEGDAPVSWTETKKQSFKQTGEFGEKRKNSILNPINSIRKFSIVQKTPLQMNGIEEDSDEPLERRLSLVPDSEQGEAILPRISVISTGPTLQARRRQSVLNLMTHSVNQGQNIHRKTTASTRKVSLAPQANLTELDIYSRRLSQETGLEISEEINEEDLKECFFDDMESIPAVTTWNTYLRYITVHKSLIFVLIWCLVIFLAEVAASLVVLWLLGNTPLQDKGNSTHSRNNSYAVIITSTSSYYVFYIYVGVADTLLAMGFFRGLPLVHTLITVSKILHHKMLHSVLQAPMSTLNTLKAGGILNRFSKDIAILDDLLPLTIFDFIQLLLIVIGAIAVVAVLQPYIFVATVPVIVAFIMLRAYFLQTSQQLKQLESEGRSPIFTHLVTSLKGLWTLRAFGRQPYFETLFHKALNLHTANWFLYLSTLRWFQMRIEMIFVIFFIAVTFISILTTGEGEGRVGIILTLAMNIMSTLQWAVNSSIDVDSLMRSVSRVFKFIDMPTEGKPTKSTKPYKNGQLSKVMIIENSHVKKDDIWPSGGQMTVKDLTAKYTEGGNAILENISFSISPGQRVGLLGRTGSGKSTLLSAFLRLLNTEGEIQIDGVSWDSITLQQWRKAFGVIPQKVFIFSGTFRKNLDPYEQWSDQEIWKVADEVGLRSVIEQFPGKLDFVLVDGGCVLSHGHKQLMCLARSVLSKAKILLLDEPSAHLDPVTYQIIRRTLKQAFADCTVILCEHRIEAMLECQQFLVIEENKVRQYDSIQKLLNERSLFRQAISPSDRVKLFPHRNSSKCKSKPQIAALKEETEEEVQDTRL

Compound	Ent. A Max Activity (%)	pEC50
Cc1cccc(C)c1-c1cc2nc(n1)NS(=O)(=O)c1cccc(c1)C(=O)N1CCN(Cc3ncccn3)C[C@@H]1CO2 [Compound 286]	+ (+ is <300%)	–
Cc1cccc(C)c1-c1cc2nc(n1)NS(=O)(=O)c1cccc(c1)C(=O)N1CCN(Cc3ccnnc3)C[C@@H]1CO2 [Compound 287]	+ (+ is <300%)	–
Cc1cccc(C)c1-c1cc2nc(n1)NS(=O)(=O)c1cccc(c1)C(=O)N1CCN(Cc3ccn[nH]3)C[C@@H]1CO2 [Compound 288]	+ (+ is <300%)	–
Cc1cccc(C)c1-c1cc2nc(n1)NS(=O)(=O)c1cccc(c1)C(=O)N1CCN(C(=O)NCc3ccccc3)C[C@@H]1CO2 [Compound 289]	+ (+ is <300%)	–
Cc1cccc(C)c1-c1cc2nc(n1)NS(=O)(=O)c1cccc(c1)C(=O)N1CCN(C(=O)NC34CC5CC(CC(C5)C3)C4)C[C@@H]1CO2 [Compound 290]	++ (++ is 30-60%)	5.52 to 6.00
Cc1cccc(C)c1-c1cc2nc(n1)NS(=O)(=O)c1cccc(c1)C(=O)N1CCN(C(=O)NC(C)(C)C)C[C@@H]1CO2 [Compound 291]	+++ (+++ is >60%)	–
Cc1cccc(C)c1-c1cc2nc(n1)NS(=O)(=O)c1cccc(c1)C(=O)N1CCN(C(=O)NC(C)C(C)C)C[C@@H]1CO2 (stereo partly shown) [Compound 292]	++ (++ is 30-60%)	–
CC(=O)NCCN1CCN2C(=O)c3cccc(c3)S(=O)(=O)Nc3nc(cc(-c4c(C)cccc4C)n3)OC[C@H]2C1 [Compound 294]	++ (++ is 30-60%)	4.52 to 5.52
Cc1cccc(C)c1-c1cc2nc(n1)NS(=O)(=O)c1cccc(c1)C(=O)N1CCN(CC3CCOCC3)C[C@@H]1CO2 [Compound 295]	+++ (+++ is >60%)	5.52 to 6.00
Cc1cccc(C)c1-c1cc2nc(n1)NS(=O)(=O)c1cccc(c1)C(=O)N1CCN(CCCC(C)(C)C)C[C@@H]1CO2 [Compound 296]	+++ (+++ is >60%)	> 6.00
Cc1cccc(C)c1-c1cc2nc(n1)NS(=O)(=O)c1cccc(c1)C(=O)N1CCN(CC3CCCCC3)C[C@@H]1CO2 [Compound 297]	+++ (+++ is >60%)	> 6.00
Cc1cccc(C)c1-c1cc2nc(n1)NS(=O)(=O)c1cccc(c1)C(=O)N1CCN(CCc3ccccc3)C[C@@H]1CO2 [Compound 299]	++ (++ is 30-60%)	> 6.00
Cc1cccc(C)c1-c1cc2nc(n1)NS(=O)(=O)c1cccc(c1)C(=O)N1CCCC1CO2 (stereo not shown) [Compound 301]	+ (+ is <300%)	–
Cc1cccc(C)c1-c1cc2nc(n1)NS(=O)(=O)c1cccc(c1)C(=O)N1CCN(C(=O)CCN3CCCC3)C(CO2)C1 (stereo not shown) [Compound 303]	+ (+ is <300%)	–
Cc1cccc(C)c1-c1cc2nc(n1)NS(=O)(=O)c1cccc(c1)C(=O)N1CCN(C(=O)CC(C)(C)C)C(CO2)C1 (stereo not shown) [Compound 304]	++ (++ is 30-60%)	–
Cc1cccc(C)c1-c1cc2nc(n1)NS(=O)(=O)c1cccc(c1)C(=O)N1CCN(C(=O)CN(C)C)CC1CO2 (stereo not shown) [Compound 305]	+ (+ is <300%)	–
Cc1cccc(C)c1-c1cc2nc(n1)NS(=O)(=O)c1cccc(c1)C(=O)N1CCN(C(=O)CCN3CCCC3=O)CC1CO2 (stereo not shown) [Compound 306]	+ (+ is <300%)	–
Cc1cccc(C)c1-c1cc2nc(n1)NS(=O)(=O)c1cccc(c1)C(=O)N1CCN(C(=O)CC(C)(C)C)CC1CO2 (stereo not shown) [Compound 307]	++ (++ is 30-60%)	4.52 to 5.52
Cc1cccc(C)c1-c1cc2nc(n1)NS(=O)(=O)c1cccc(c1)C(=O)N1CCN(C(=O)CCN3CCCC3)CC1CO2 (stereo not shown) [Compound 308]	+ (+ is <300%)	–

Compound	Ent. A Max Activity (%)	pEC50
Cc1cccc(C)c1-c1cc2nc(n1)NS(=O)(=O)c1cccc(c1)C(=O)N1CCN(CC3CCCCC3)CC1CO2 (stereo not shown) [Compound 309]	++ (++ is 30-60%)	> 6.00
Cc1cccc(C)c1-c1cc2nc(n1)NS(=O)(=O)c1cccc(c1)C(=O)N1CCN(CCC(C)(C)C)CC1CO2 (stereo not shown) [Compound 310]	++ (++ is 30-60%)	> 6.00
Cc1cccc(C)c1-c1cc2nc(n1)NS(=O)(=O)c1cccc(c1)C(=O)N1CCN(CCc3ccccc3)CC1CO2 (stereo not shown) [Compound 311]	++ (++ is 30-60%)	> 6.00
Cc1cccc(C)c1-c1cc2nc(n1)NS(=O)(=O)c1cccc(c1)C(=O)N1CCN(CC3CCOCC3)CC1CO2 (stereo not shown) [Compound 312]	++ (++ is 30-60%)	5.52 to 6.00
Cc1cccc(C)c1-c1cc2nc(n1)NS(=O)(=O)c1cccc(c1)C(=O)N1CCN(CCCC(C)(C)C)CC1CO2 (stereo not shown) [Compound 313]	+++ (+++ is >60%)	> 6.00
Cc1cccc(C)c1-c1cc2nc(n1)NS(=O)(=O)c1cccc(c1)C(=O)N1CCN(CCC3(C(F)(F)F)CC3)C(CO2)C1 (stereo not shown) [Compound 314]	+++ (+++ is >60%)	> 6.00
Cc1cccc(C)c1-c1cc2nc(n1)NS(=O)(=O)c1cccc(c1)C(=O)N1CCN(C(=O)OC(C)(C)C)C[C@@H]1CO2 [Compound 315]	++ (++ is 30-60%)	> 6.00
Cc1cccc(C)c1-c1cc2nc(n1)NS(=O)(=O)c1cccc(c1)C(=O)N1CCN(C)C(CO2)C1 (stereo not shown) [Compound 316]	+ (+ is <300%)	–
Cc1cccc(C)c1-c1cc2nc(n1)NS(=O)(=O)c1cccc(c1)C(=O)N1CCC(c3ccccc3)C(C1)O2 (stereo not shown) [Compound 317]	+++ (+++ is >60%)	> 6.00
Cc1cccc(C)c1-c1cc2nc(n1)NS(=O)(=O)c1cccc(c1)C(=O)N1Cc3ccccc3[C@@H](C1)O2 [Compound 318]	+ (+ is <300%)	–
Cc1cccc(C)c1-c1cc2nc(n1)NS(=O)(=O)c1cccc(c1)C(=O)N1CC(NC(=O)OC(C)(C)C)CC(C1)O2 (stereo not shown) [Compound 320]	++ (++ is 30-60%)	5.52 to 6.00
Cc1cccc(C)c1-c1cc2nc(n1)NS(=O)(=O)c1cccc(c1)C(=O)N1CC(CC(C(=O)NCCC(C)(C)C)C1)O2 (stereo not shown) [Compound 321]	++ (++ is 30-60%)	> 6.00
Cc1cccc(C)c1-c1cc2nc(n1)NS(=O)(=O)c1cccc(c1)C(=O)N1CCN(C(=O)OC(C)(C)C)C(CO2)C1 (stereo not shown) [Compound 322]	++ (++ is 30-60%)	> 6.00
Cc1cccc(C)c1-c1cc2nc(n1)NS(=O)(=O)c1cccc(c1)C(=O)N1CC(O2)C(N2CCOCC2)C1 (stereo not shown) [Compound 323]	++ (++ is 30-60%)	4.52 to 5.52
Cc1cccc(C)c1-c1cc2nc(n1)NS(=O)(=O)c1cccc(c1)C(=O)N1CCN(C)CC1CO2 (stereo not shown) [Compound 324]	++ (++ is 30-60%)	4.52 to 5.52
Cc1cccc(C)c1-c1cc2nc(n1)NS(=O)(=O)c1cccc(c1)C(=O)N1Cc3ccccc3C(C1)O2 (stereo not shown) [Compound 325]	+++ (+++ is >60%)	> 6.00
Cc1cccc(C)c1-c1cc2nc(n1)NS(=O)(=O)c1cccc(c1)C(=O)N1CCCC(C1)O2 (stereo not shown) [Compound 326]	+ (+ is <300%)	4.52 to 5.52
Cc1cccc(C)c1-c1cc2nc(n1)NS(=O)(=O)c1cccc(c1)NC(=O)[C@@H]1CNCCN1c1cccc(c1)O2 [Compound 334]	+++ (+++ is >60%)	5.52 to 6.00
Cc1cccc(C)c1-c1cc2nc(n1)NS(=O)(=O)c1cccc(c1)C(=O)N1CCC[C@@H](C1)O2 [Compound 335]	+ (+ is <300%)	–
